Measurements reported in ChEMBL document CHEMBL4507297, “Data for DCP probe PF-04457845” (2021).

What was measured:
[1] = biological target: GABA-A receptor; anion channel (Rattus norvegicus) (UniProt O09028+P15431+P18506+P18508+P19969+P20236+P23574+P23576+P28471+P28473+P30191+P62813+P63079+P63138+Q91ZM7+Q9ES14); settings: Compound concentration 10.0 uM
[2] = biological target: 5-hydroxytryptamine receptor 2C (Homo sapiens, UniProt P28335); assay: GPCRScan assay: inhibition of 5-HT2C; design: radioligand conc. used [nm] 1.0 – 2.5, parental cells HEK T
[3] = biological target: Sigma non-opioid intracellular receptor 1 (Homo sapiens, UniProt Q99720); assay: GPCRScan assay: inhibition of Sigma 1; design: radioligand conc. used [nm] 4.0 – 5.0, parental cells HEKT
Sequence of Sigma non-opioid intracellular receptor 1 (Q99720 whole entry): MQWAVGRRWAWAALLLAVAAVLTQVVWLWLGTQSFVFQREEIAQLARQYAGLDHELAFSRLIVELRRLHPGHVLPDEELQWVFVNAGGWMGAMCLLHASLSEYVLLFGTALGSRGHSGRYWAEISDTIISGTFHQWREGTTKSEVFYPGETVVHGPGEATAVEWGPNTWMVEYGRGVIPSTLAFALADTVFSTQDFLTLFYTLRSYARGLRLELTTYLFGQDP

[4] = biological target: Adrenergic receptor alpha-1 (Homo sapiens) (UniProt P35348+P25100+P35368); assay: alpha1 (non-selective) CEREP ligand profiling; type: protein assay; settings: Compound concentration 10.0 uM
[5] = biological target: T1, Alpha-2A adrenergic receptor (Homo sapiens) (UniProt P08913); assay: alpha2A (h) CEREP ligand profiling; settings: Compound concentration 10.0 uM
T1 sequence (whole entry): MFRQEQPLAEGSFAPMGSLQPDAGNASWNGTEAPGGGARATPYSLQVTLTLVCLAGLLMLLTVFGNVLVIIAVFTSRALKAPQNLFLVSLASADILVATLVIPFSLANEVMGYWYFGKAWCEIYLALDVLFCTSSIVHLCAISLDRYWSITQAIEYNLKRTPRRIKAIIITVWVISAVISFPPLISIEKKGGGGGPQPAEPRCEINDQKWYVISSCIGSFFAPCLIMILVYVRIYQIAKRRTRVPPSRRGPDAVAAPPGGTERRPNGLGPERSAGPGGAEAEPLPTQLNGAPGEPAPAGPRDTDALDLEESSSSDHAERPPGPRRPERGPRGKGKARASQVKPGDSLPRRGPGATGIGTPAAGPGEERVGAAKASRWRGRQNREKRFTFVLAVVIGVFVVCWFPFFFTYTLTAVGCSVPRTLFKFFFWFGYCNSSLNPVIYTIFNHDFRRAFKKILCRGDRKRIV

[6] = biological target: Glutamate [NMDA] receptor (Homo sapiens) (UniProt Q05586+Q12879+Q13224+O15399+O60391+Q14957+Q8TCU5); assay: NMDA CEREP ligand profiling; type: protein-complex assay; settings: Compound concentration 10.0 uM
[7] = Glycine (strychnine-insensitive) CEREP ligand profiling; settings: Compound concentration 10.0 uM
[8] = biological target: Histamine H1 receptor (Homo sapiens) (UniProt P35367); assay: H1 (h) CEREP ligand profiling; settings: Compound concentration 10.0 uM
Sequence of Histamine H1 receptor (Homo sapiens) (P35367 whole entry): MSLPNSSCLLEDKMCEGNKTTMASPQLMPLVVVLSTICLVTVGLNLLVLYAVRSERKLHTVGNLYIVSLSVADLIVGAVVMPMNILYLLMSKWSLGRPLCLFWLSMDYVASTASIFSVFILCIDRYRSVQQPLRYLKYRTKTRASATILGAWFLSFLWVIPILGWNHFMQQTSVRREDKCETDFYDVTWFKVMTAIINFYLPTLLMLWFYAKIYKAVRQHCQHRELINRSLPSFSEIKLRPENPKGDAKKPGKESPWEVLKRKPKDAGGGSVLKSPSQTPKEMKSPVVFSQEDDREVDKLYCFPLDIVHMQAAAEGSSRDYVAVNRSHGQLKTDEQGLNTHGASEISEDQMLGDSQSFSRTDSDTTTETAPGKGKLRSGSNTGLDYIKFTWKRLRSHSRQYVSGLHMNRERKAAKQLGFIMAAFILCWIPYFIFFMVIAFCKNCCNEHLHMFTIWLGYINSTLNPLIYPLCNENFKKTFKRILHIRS

[9] = biological target: MAO-A (Amine oxidase [flavin-containing] A) (Homo sapiens, UniProt P21397); assay: MAO-A CEREP ligand profiling; settings: compound concentration 10 uM
Sequence of MAO-A (Amine oxidase [flavin-containing] A) (P21397 whole entry): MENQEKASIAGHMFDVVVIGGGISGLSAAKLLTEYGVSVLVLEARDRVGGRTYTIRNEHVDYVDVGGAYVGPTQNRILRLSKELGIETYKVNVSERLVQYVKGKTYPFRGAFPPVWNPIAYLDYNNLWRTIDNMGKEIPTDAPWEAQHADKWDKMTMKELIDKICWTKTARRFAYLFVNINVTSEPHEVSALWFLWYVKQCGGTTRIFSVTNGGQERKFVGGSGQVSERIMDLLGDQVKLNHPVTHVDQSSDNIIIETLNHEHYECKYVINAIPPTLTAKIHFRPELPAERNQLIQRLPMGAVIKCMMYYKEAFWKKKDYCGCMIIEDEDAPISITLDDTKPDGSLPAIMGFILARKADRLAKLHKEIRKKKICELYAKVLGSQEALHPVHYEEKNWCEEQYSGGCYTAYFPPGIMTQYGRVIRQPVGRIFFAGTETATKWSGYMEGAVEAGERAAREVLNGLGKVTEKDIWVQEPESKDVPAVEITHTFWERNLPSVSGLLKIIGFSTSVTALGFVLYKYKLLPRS

[10] = biological target: T2, Muscarinic acetylcholine receptor M2 (Homo sapiens) (UniProt P08172); assay: M2 (h) CEREP ligand profiling; settings: Compound concentration 10.0 uM
T2 sequence (whole entry): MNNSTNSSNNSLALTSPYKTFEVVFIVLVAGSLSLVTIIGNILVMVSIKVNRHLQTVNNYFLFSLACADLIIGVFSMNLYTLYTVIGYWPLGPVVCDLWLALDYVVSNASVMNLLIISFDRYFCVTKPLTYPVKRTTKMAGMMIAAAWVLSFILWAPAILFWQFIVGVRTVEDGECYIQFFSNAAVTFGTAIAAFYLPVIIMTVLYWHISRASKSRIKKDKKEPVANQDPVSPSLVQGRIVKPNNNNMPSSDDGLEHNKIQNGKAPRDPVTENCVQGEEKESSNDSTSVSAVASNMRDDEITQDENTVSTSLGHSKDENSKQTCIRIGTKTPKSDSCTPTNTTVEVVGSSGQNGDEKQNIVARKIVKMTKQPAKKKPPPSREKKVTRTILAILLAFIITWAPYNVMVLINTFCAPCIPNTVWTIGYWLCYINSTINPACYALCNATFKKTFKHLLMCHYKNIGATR

[11] = biological target: T3, 5-hydroxytryptamine receptor 2C (Homo sapiens) (UniProt P28335); assay: 5-HT2C (h) (agonist site) CEREP ligand profiling; settings: Compound concentration 10.0 uM
T3 sequence (whole entry): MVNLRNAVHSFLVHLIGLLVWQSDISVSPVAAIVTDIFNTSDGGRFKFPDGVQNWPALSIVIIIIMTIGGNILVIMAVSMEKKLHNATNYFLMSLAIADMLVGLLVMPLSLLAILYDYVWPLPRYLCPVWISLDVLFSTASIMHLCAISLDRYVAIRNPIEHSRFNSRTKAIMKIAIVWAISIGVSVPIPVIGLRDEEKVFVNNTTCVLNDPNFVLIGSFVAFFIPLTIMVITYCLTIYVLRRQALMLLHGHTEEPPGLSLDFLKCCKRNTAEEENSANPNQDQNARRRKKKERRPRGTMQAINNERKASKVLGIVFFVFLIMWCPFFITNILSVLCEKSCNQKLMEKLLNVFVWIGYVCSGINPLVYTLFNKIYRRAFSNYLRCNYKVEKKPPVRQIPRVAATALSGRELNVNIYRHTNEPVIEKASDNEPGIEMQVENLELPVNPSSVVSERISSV

[12] = biological target: T4, 5-hydroxytryptamine receptor 3A (Homo sapiens) (UniProt P46098); assay: 5-HT3 (h) CEREP ligand profiling; settings: Compound concentration 10.0 uM
T4 sequence (whole entry): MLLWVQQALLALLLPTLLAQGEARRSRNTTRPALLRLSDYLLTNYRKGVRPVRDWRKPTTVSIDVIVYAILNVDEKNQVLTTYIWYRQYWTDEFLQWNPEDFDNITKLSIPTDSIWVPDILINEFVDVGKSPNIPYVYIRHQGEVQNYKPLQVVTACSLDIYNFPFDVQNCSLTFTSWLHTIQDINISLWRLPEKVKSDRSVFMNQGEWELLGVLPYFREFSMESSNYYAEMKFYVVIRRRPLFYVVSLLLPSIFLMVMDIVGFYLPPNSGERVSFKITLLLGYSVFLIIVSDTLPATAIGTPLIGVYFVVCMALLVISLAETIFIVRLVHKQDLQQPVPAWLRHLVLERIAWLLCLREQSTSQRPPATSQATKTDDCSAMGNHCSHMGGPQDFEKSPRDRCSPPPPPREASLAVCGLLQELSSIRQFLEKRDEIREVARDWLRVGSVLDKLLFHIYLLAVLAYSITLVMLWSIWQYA

[13] = biological target: 5-hydroxytryptamine receptor 4 (Homo sapiens) (UniProt Q13639); assay: 5-HT4e (h) CEREP ligand profiling; settings: Compound concentration 10.0 uM
Sequence of 5-hydroxytryptamine receptor 4 (Homo sapiens) (Q13639 whole entry): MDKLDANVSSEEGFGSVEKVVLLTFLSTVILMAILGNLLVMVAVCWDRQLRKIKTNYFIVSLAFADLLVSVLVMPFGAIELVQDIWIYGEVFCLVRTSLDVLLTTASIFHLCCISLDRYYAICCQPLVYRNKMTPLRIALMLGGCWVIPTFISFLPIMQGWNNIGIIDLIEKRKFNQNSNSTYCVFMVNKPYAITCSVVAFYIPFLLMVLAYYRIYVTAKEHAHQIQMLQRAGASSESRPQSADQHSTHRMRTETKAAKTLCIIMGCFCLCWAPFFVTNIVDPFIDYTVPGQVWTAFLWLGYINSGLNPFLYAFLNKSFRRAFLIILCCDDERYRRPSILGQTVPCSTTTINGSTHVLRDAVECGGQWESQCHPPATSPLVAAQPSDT

[14] = biological target: 5-hydroxytryptamine receptor 7 (Homo sapiens) (UniProt P34969); assay: 5-HT7 (h) CEREP ligand profiling; settings: Compound concentration 10.0 uM
Sequence of 5-hydroxytryptamine receptor 7 (Homo sapiens) (P34969 whole entry): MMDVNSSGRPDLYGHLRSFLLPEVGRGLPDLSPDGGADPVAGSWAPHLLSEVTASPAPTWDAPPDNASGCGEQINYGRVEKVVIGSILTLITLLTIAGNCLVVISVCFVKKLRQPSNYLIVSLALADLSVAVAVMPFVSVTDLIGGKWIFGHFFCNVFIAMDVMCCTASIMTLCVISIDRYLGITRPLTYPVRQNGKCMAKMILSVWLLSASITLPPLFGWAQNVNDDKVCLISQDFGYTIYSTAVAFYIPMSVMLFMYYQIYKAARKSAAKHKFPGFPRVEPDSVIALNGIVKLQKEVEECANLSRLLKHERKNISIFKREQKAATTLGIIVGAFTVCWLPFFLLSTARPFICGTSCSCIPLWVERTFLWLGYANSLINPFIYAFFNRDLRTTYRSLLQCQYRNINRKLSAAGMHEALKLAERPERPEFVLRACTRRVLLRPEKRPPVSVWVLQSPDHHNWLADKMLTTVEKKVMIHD

[15] = biological target: Vasopressin V1a receptor (Homo sapiens) (UniProt P37288); assay: V1a (h) CEREP ligand profiling; settings: Compound concentration 10.0 uM
Sequence of Vasopressin V1a receptor (Homo sapiens) (P37288 whole entry, looked up): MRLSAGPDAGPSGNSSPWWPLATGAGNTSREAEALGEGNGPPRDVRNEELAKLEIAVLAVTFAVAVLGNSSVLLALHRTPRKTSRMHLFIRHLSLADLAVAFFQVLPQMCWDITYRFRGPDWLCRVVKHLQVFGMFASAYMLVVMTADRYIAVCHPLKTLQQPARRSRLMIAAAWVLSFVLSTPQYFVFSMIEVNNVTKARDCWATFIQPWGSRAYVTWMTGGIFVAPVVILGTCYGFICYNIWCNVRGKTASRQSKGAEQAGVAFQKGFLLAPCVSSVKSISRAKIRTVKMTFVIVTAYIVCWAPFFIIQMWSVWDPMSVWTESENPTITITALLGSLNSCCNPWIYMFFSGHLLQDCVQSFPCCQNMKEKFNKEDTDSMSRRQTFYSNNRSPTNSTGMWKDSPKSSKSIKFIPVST

[16] = CI channel CEREP ligand profiling
[17] = biological target: Sodium-dependent dopamine transporter (Homo sapiens) (UniProt Q01959); assay: DA transporter (h) CEREP ligand profiling; settings: Compound concentration 10.0 uM
Sequence of Sodium-dependent dopamine transporter (Homo sapiens) (Q01959 whole entry): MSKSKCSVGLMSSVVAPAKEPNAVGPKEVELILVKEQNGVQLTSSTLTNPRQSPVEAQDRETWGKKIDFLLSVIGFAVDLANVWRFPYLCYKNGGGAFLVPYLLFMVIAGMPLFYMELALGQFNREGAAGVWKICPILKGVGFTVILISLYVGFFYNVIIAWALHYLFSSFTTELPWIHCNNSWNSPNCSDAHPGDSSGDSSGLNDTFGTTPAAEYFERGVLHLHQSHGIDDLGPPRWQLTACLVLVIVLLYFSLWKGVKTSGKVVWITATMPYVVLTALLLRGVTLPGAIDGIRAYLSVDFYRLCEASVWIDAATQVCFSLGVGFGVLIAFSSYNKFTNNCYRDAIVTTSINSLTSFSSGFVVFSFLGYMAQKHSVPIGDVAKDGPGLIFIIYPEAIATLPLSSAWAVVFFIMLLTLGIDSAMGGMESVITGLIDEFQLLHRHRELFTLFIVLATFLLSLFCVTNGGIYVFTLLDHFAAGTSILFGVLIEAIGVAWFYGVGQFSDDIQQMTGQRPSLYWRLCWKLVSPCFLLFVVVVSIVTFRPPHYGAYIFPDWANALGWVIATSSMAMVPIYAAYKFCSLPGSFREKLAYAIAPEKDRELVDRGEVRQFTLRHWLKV

[18] = biological target: High affinity choline transporter 1 (Homo sapiens) (UniProt Q9GZV3); assay: Choline transporter (h) (CHT1) CEREP ligand profiling; settings: Compound concentration 10.0 uM
Sequence of High affinity choline transporter 1 (Homo sapiens) (Q9GZV3 whole entry): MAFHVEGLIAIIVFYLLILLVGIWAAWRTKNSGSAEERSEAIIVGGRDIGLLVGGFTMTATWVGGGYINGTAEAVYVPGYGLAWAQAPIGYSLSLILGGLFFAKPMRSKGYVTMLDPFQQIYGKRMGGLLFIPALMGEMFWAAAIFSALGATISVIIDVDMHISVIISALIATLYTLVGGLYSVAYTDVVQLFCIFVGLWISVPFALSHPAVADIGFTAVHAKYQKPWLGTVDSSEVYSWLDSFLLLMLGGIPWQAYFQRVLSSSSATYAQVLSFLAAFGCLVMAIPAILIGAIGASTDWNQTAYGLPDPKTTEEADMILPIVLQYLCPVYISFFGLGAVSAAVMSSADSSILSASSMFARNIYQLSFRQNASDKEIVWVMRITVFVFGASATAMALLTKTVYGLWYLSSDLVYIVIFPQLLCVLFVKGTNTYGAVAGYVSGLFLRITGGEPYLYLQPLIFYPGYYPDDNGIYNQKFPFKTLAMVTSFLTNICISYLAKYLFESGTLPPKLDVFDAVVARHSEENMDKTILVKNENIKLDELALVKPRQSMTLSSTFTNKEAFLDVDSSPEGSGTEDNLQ

[19] = biological target: Delta-type opioid receptor (Homo sapiens) (UniProt P41143); settings: Compound concentration 10.0 uM
Sequence of Delta-type opioid receptor (Homo sapiens) (P41143 whole entry): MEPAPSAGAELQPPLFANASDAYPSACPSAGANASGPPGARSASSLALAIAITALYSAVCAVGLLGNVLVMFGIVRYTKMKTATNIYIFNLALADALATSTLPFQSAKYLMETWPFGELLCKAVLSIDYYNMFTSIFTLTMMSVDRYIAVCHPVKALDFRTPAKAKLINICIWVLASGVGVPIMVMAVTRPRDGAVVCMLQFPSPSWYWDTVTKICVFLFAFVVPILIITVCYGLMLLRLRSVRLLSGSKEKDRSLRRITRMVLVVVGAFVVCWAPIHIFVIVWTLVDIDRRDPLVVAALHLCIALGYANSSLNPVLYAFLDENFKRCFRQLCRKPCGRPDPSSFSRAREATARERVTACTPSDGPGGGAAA

Compound O=C(Nc1cccnn1)N1CC(C/C=C/c2cncc(Oc3ccc(C(F)(F)F)cn3)n2)C1 has an inhibition [1] of 23.7%.
For O=C(Nc1cccnn1)N1CCC(=Cc2cccc(Oc3ccc(C(F)(F)F)cn3)c2)CC1, the Ki [2] was 1.66 µM, the Ki [3] was 0.472 µM and the inhibition [4] was -2%. It also gave an inhibition [5] of -4%, an inhibition [6] of -3% and an inhibition [7] of -2%. The inhibition [8] was -1%, the inhibition at 10 µM [9] was 13% (not active) and the inhibition [10] was 15%. It also gave an inhibition [11] of -3%, an inhibition [12] of -8% and an inhibition [13] of -8%. For the same compound, the inhibition [14] was 7%, the inhibition [15] was 8% and the Ki [16] was 3 µM. It also gave an inhibition ([16]; Compound concentration 10.0 uM) of 78%, an inhibition [17] of -1% and an inhibition [18] of 18%. For the same compound, the inhibition [19] was 12.3%.
